Results published in patent publication US20230003721A1, “MITOTHERAPEUTICS FOR THE TREATMENT OF BRAIN DISORDERS” (The University of Florida Research Foundation, Inc., priority 2019, published 2023).
Where a name gives a salt, the structure may show the parent alone. Read-outs that look alike come from different tables or passages of the source.

Columns and labels:
[1] = tested on: Drosophila model for AD; assay: Drosophila model for AD: neuronal mitochondrial morphology; assay type: in vivo; conditions: cell bodies of neurons; 100 micromolar, 15 days-of-age
Excerpt: To assay representative compounds in this example, we employed a Drosophila model for AD (X. Wang et al., Mol. Neurobiol. […] Flies expressing this toxic protein show: […] Drugs that show efficacy therefore: enlarge neuronal mitochondria (increased volume, increased surface area, increased length), reduce sphericity, and reduce the number of mitochondria compared to untreated Alzheimer's flies. The AD model flies were collected immediately after eclosion from the pupal case and transferred to food that was laced with drug at 100 micromolar concentration. The flies were aged to 15 days-of-age: this is when the mitochondrial pathology is very robust. We compared the morphology of mitochondria collected from these flies treated with drug and compared them to the mitochondria of flies that remained untreated.

[2] = tested on: primary neurons; assay: TMRM fluorescence assay of inner mitochondrial membrane potential (ΔΨm); conditions: for Emax: read-out: TMRM (Effect-size); for TMRM Primary: primary screen, 12.5 μM; for TMRM Primary / TMRM Rescreen: 24 h
[3] = tested on: primary neurons; assay: CellTiter-Glo luminescence-based ATP assay; assay type: cell-based, mouse; conditions: for ATP: ATP orthogonal screen, 24 h; for Emax: maximal percent increase relative to in-plate DMSO controls, read-out: ATP (Effect-size)
In short: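 Primary neurons treated from DIV13 for 24 h with compound or DMSO. After part of the medium was removed, CellTiter-Glo reagent was added; plates were shaken 10 min at 200 rpm, kept 2 min in the dark at room temperature, and luminescence read as total ATP.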

[4] = tested on: primary neurons; conditions: 75 μM peroxide, 12.5 μM compound, 48 h
[5] = tested on: primary forebrain neurons; assay: cells; conditions: 24 h; for Dendritic Mt CA / Neurite Area: rescreen, 12.5 μM, vs DMSO wells; for EC50: Mus musculus, Neuron
[6] = tested on: isolated forebrain mitochondria; assay: ATP production of isolated mitochondria (luciferase-based kinetic assay); assay type: biochemical, mouse
Method: Isolation of mitochondria. For the ATP synthesis experiments of FIG. 6, forebrains from P0 pups were dissected as described above. 2×10^7 cells were harvested for high-purity mitochondrial isolation using the Qiagen QProteome kit. The mitochondrial pellet was resuspended in 500 μl mitochondria storage buffer (provided by kit) and kept on ice until further use.
ATP production of isolated forebrain mitochondria of P0 pups was measured by ATP Determination Kit (Molecular Probes). […] The reactions were initiated by the addition of 1 mM ADP (deprived of ATP contamination by adding 3 U/ml hexokinase to 10 mM of ADP in 50 mM Tris-HCl, 20 mM MgCl2 and 22 mM glucose, incubating the solution at 37° C. for 1 hr and heat inactivating the hexokinase at 100° C. for 3 min). Luminescence was recorded every 15-30 sec for 1 hr at 580±40 nm.

[7] = tested on: primary neurons; assay: Oxygen consumption rate (OCR) of permeabilized primary neurons; assay type: cell-based, mouse
Method: The oxygen consumption rate (OCR) of permeabilized neurons and isolated brain mitochondria (from 9-month old mice) was measured by the XF96 Extracellular Flux analyzer (Seahorse Bioscience). […] Prior to the start of the OCR measurement, all but 30 μl of Neurobasal A/B27 culture medium was removed from each well. Cells were washed twice with pre-warmed MAS-BSA assay medium (4 mg/ml fatty-acid free BSA, pH=7.2) and incubated in 180 μl at 37° C. for 5 min. Following the cartridge calibration, cells were loaded into the XF96 Extracellular Flux analyzer and further equilibrated for 10 min with two cycles of 3 min mixing and 2 min resting prior to the first measurement of basal respiration. OCR were measured at 37° C. under basal conditions followed by the sequential injection of pre-warmed 10× mitochondrial substrates/ADP (20 μl), oligomycin (22 μl), FCCP (24 μl), and rotenone/antimycin A (26 μl). The final concentrations of injected compounds were as follows: 10 mM mitochondrial substrates (pyruvate/malate or succinate), 1 mM ADP, 1.5 μM oligomycin, 3 μM FCCP, 2 μM rotenone/antimycin A. Saponin (25 μg/ml) was co-injected with substrate/ADP to permeabilize the cells and stimulate ADP-dependent respiration. Two baseline measurements were obtained prior to any injection and 2 response measurements were collected after each injection except for after FCCP addition which consisted of 1 measurement (9 total measurements in each assay). Each measurement cycle consisted of 2 min mixing, 2 min waiting, and 3 min data acquisition. This protocol allowed for sequential assessment of basal cell respiration, maximal mitochondrial respiratory capacity (State 3 with substrate/ADP), proton leak (State 4o with oligomycin), uncoupled maximal respiration (State 3U with FCCP) and non-mitochondrial respiration with the Complex I/Complex III inhibitors, rotenone/antimycin A. Cells were washed twice with MAS buffer to remove residue BSA contained in the assay medium, lysed in 50 μl lysis buffer (25 mM HEPES, 1 mM EGTA, 1 mM EDTA, 0.1% SDS, 1% NP-40, 1× protease and phosphatase inhibitor, pH 7.0 adjusted with NaOH) and total protein was determined by BCA assay. Oxygen consumption was normalized to total protein content as pmol O2/min/ug total protein.
Oxygen consumption rate (OCR) or extracellular acidification rate (ECAR) measurements from permeabilized neurons and isolated brain mitochondria were performed using the XF96 Extracellular Flux analyzer (Seahorse Bioscience). For assays using cultured neurons, primary neurons were dissociated from the forebrains of P0 pups, seeded at 1.9×10^4/well (PDL-coated XF96 plate), cultured to DIV13 and incubated with selected compounds or DMSO (0.1%) for 24 h. Prior to the start of the OCR measurement, all but 30 μl of Neurobasal A/B27 culture medium was removed from each well. Cells were washed twice with pre-warmed MAS-BSA assay medium (70 mM sucrose, 220 mM mannitol, 10 mM KH2PO4, 5 mM MgCl2, 2 mM HEPES and 1 mM EGTA, 4 mg/ml fatty-acid free BSA, pH=7.2 adjusted using KOH) and incubated in 180 ul MAS-BSA medium at 37° C. in a CO2-free incubator for 5 m. […] OCR and ECAR were measured at 37° C. under basal conditions followed by the sequential injection of pre-warmed 10× mitochondrial substrates/ADP (20 μl), oligomycin (22 μl), FCCP (24 μl), and rotenone/antimycin A (26 μl).

[8] = tested on: primary neurons; assay: Mitochondrial morphology and neurite area after functional modulators; assay type: cell-based, mouse; parameters: key to Neurite Area: non-significant (n.s.); conditions: for Mitochondrial Morphology / Neurite Area: significant change
Method: Mitochondrial morphology and neurite area measurements. Mitochondrial morphology and neurite area were quantified using methods described by Varkuti et al, 2020. Briefly, Cre-dependent mitochondrial targeted GFP2 (mito-GFP) ROSA26 knock-in mice were crossed with Ai14 (007908, The Jackson Laboratory) expressing cytosolic-tdTomato, and the forebrain of P0 pups were isolated and primary neurons were cultured as described above. AAV9 virus containing the iCRE sequence driven by the neuron specific CaMKII promoter was added to the cell culture at plating and 75% of the media replaced 4 h after plating. […] Z-projected images of the green channel were preprocessed (background subtraction: rolling ball, radius=3; median filtering: radius=1) and somatic mitochondria were removed (see details in Varkuti et al, Science Advances 6 (2020) eaaw8702). Red channel images were also preprocessed (tubeness filter, soma removal). Preprocessed images were segmented by GE Developer software (object-based, kernel size: 3). […] The length and circularity measurements for mitochondria were aggregated using the median and the area for neurites using the sum. After removing empty fields and outlier values from the fields, aggregated field values were averaged to well values (4 fields/well, 12 wells/compound). Robust Z-scores were calculated using DMSO-treated wells for each well ((mediancompound−medianDMSO)/median absolute deviationDMSO), well values were averaged for each compound.
A high-content assay was developed in parallel to monitor aspects of mitochondrial dynamics in primary cultured neurons that conditionally express (Cre recombinase dependent) mitochondrial-tagged GFP and cytosolic tdTomato reporters (Varkuti et al., 2020). We monitored two aspects of neuritic mitochondrial dynamics: (1) the health of mitochondria as measured by the average circularity of axonal mitochondria, since defective mitochondria targeted for mitophagy become circular in shape, and (2) the balance between fission/fusion measured by the average length of dendritic mitochondria. […] FIG. 19A illustrates the results of surveying a collection of functional modulators selected from 5 different structural clusters (FIG. 17), quantified as robust z-scores relative to DMSO-treated control neurons.

[9] = Mus musculus, Primary neuron, dose response

Row | Structure (SMILES) | Surface area of mitochondria, p (treated vs untreated) [1] | Emax ([2]; Mus musculus, Primary neuron) [%] | TMRM Primary [2] [Z-scores] | TMRM Rescreen [2] [Z-scores] | ATP [3] [Z-scores] | Emax [3, 9] [%] | protection from peroxide (PO) induced mitochondrial fragmentation [4] | Dendritic Mt CA [5] [robust Z-scores] | Neurite Area [5] [robust Z-scores] | Mitochondrial Morphology [8] | Neurite Area [8] | other results
1 | Cc1ccccc1C(OCCN(C)C)c1ccccc1 (stereo not drawn) [ORPHENADRINE CITRATE] | p = 0.022 | 25.5 | 3.26 | 5.75 | 6.08 | 14.3 | fully protected | 3.21 | 0.08 |  |  | 
2 | COc1cc(O)c2c(=O)c(O)c(-c3ccc(O)c(O)c3)oc2c1 [RHAMNETIN] | p = 0.0564 |  |  |  |  |  | fully protected | 4.48 | 2.04 |  |  | ATP production kinetics, amplitude of single exponential fit ([6]; 12 μM, starting 20 min after addition, DMSO 22498±358): 10059±166; ATP production of isolated mitochondria (direct effect) ([6]; 12.5 μM, within the 45-min measurement period, vs DMSO): decreased; ATP production in neurons ([3]; after 24 hr of treatment): increase; EC50 ([5]; read-out: Elongation (Dend Mt length) EC50): 200 nM; EC50 ([5]; read-out: Health (Ax Mt Circularity) EC50): 2700 nM; EC50 ([5]; read-out: Mt Content (Dend Mt CA) EC50): 200 nM; EC50 ([5]; read-out: Sprouting (Neurite Area) EC50): 300 nM
3 | CN(C)CCC=C1c2ccccc2COc2ccccc21 [doxepin hydrochloride] |  | 26.1 | 3.44 | 5.41 | 7.03 | 18.3 |  |  |  | elongated | n.s. | basal rate of respiration ([7]; 10 μM, 24 h): weak, non-significant, but consistent trend towards an increased basal rate of respiration; State 3 and 3u respiration with Complex I substrates ([7]; 10 μM, 24 h, cultured neurons): significant increase; OCR ([7]; oxygen consumption rate, significant change): increased; axonal mitochondrial circularity ([8]; after 48 h of treatment): robust effects
4 | OC1(c2ccc(Cl)c(C(F)(F)F)c2)CCN(CCCC(c2ccc(F)cc2)c2ccc(F)cc2)CC1 [penfluridol] | p = 0.066 | 25.2 | 4.29 | 4.83 | 5.75 | 22.4 |  |  |  | elongated | increased | EC50 ([2]; Mus musculus, Primary neuron, read-out: TMRM-EC50): 50 nM; EC50 ([3]; Mus musculus, Primary neuron, dose response, 15 concentrations from 6 nM to 100 uM): 30 nM; neuritic area ([8]; after 48 h of treatment): increase
